{"source": "PubChem BioAssay (NCI)", "test_in_all_cases": "NCI tumour cell line growth inhibition, 48 h", "key": {"[1]": {"tested_on": "DU-145 prostate"}, "[2]": {"tested_on": "OVCAR-3 ovarian"}, "[3]": {"tested_on": "NCI-H23 lung"}, "[4]": {"tested_on": "BT-549 breast"}, "[5]": {"tested_on": "MOLT-4 leukemia"}, "[6]": {"tested_on": "HCT-116 colon"}, "[7]": {"tested_on": "NCI/ADR-RES ovarian"}, "[8]": {"tested_on": "SR leukemia"}, "[9]": {"tested_on": "ACHN renal"}, "[10]": {"tested_on": "KM12 colon"}}, "note": "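Method: 48-hour compound exposure of cells in 96-well plates, five concentrations, linear interpolation of endpoints. GI50 = concentration required for 50% inhibition of growth. TGI marks complete inhibition of growth.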"}
{"smiles": "Cc1nc2ccccc2c(/C=C/c2ccc(Cl)cc2)c1C(=O)/C=C/c1ccc(C(F)(F)F)cc1", "values": [{"measurement": "GI50", "setting": "[1]", "value": 1.03, "unit": "µM"}, {"measurement": "TGI", "setting": "[1]", "value": 2.53, "unit": "µM"}, {"measurement": "GI50", "setting": "[2]", "value": 0.292, "unit": "µM"}, {"measurement": "TGI", "setting": "[2]", "value": 0.82, "unit": "µM"}, {"measurement": "GI50", "setting": "[3]", "value": 0.827, "unit": "µM"}, {"measurement": "TGI", "setting": "[3]", "value": 2.78, "unit": "µM"}, {"measurement": "GI50", "setting": "[4]", "value": 0.623, "unit": "µM"}, {"measurement": "TGI", "setting": "[4]", "value": 2.1, "unit": "µM"}, {"measurement": "GI50", "setting": "[5]", "value": 0.332, "unit": "µM"}, {"measurement": "TGI", "setting": "[5]", "value": "> 100", "unit": "µM"}, {"measurement": "GI50", "setting": "[6]", "value": 0.192, "unit": "µM"}, {"measurement": "TGI", "setting": "[6]", "value": 0.652, "unit": "µM"}, {"measurement": "GI50", "setting": "[7]", "value": 0.619, "unit": "µM"}, {"measurement": "TGI", "setting": "[7]", "value": 3.63, "unit": "µM"}, {"measurement": "GI50", "setting": "[8]", "value": 0.25, "unit": "µM"}, {"measurement": "TGI", "setting": "[8]", "value": 2.26, "unit": "µM"}, {"measurement": "GI50", "setting": "[9]", "value": 0.241, "unit": "µM"}, {"measurement": "TGI", "setting": "[9]", "value": 0.594, "unit": "µM"}, {"measurement": "GI50", "setting": "[10]", "value": 1.28, "unit": "µM"}, {"measurement": "TGI", "setting": "[10]", "value": 3.46, "unit": "µM"}]}
{"smiles": "Nc1c(C(=O)Nc2cccc(F)c2)sc2nc3c(cc12)C(=O)CCC3", "values": [{"measurement": "GI50", "setting": "[1]", "value": 0.354, "unit": "µM"}, {"measurement": "TGI", "setting": "[1]", "value": "> 100", "unit": "µM"}, {"measurement": "GI50", "setting": "[2]", "value": 0.351, "unit": "µM"}, {"measurement": "TGI", "setting": "[2]", "value": "> 100", "unit": "µM"}, {"measurement": "GI50", "setting": "[3]", "value": 0.608, "unit": "µM"}, {"measurement": "TGI", "setting": "[3]", "value": "> 100", "unit": "µM"}, {"measurement": "GI50", "setting": "[4]", "value": 3.71, "unit": "µM"}, {"measurement": "TGI", "setting": "[4]", "value": "> 100", "unit": "µM"}, {"measurement": "GI50", "setting": "[5]", "value": 21.9, "unit": "µM"}, {"measurement": "TGI", "setting": "[5]", "value": "> 100", "unit": "µM"}, {"measurement": "GI50", "setting": "[6]", "value": 0.447, "unit": "µM"}, {"measurement": "TGI", "setting": "[6]", "value": "> 100", "unit": "µM"}, {"measurement": "GI50", "setting": "[7]", "value": 0.487, "unit": "µM"}, {"measurement": "TGI", "setting": "[7]", "value": "> 100", "unit": "µM"}, {"measurement": "GI50", "setting": "[8]", "value": 0.481, "unit": "µM"}, {"measurement": "TGI", "setting": "[8]", "value": "> 70.6", "unit": "µM"}, {"measurement": "GI50", "setting": "[9]", "value": 0.842, "unit": "µM"}, {"measurement": "TGI", "setting": "[9]", "value": "> 100", "unit": "µM"}, {"measurement": "GI50", "setting": "[10]", "value": 0.384, "unit": "µM"}, {"measurement": "TGI", "setting": "[10]", "value": "> 100", "unit": "µM"}]}
{"smiles": "CCN(CC)CCCNCc1cc(-c2ccccc2)nc2ccccc12", "values": [{"measurement": "GI50", "setting": "[1]", "value": 21.2, "unit": "µM"}, {"measurement": "TGI", "setting": "[1]", "value": "> 100", "unit": "µM"}, {"measurement": "GI50", "setting": "[2]", "value": 4.13, "unit": "µM"}, {"measurement": "TGI", "setting": "[2]", "value": "> 100", "unit": "µM"}, {"measurement": "GI50", "setting": "[3]", "value": 6.07, "unit": "µM"}, {"measurement": "TGI", "setting": "[3]", "value": 85.2, "unit": "µM"}, {"measurement": "GI50", "setting": "[4]", "value": 3.77, "unit": "µM"}, {"measurement": "TGI", "setting": "[4]", "value": 15.9, "unit": "µM"}, {"measurement": "GI50", "setting": "[5]", "value": 0.751, "unit": "µM"}, {"measurement": "TGI", "setting": "[5]", "value": "> 100", "unit": "µM"}, {"measurement": "GI50", "setting": "[6]", "value": 0.352, "unit": "µM"}, {"measurement": "TGI", "setting": "[6]", "value": 17.9, "unit": "µM"}, {"measurement": "GI50", "setting": "[7]", "value": 2.35, "unit": "µM"}, {"measurement": "TGI", "setting": "[7]", "value": 6.51, "unit": "µM"}, {"measurement": "GI50", "setting": "[8]", "value": 0.348, "unit": "µM"}, {"measurement": "TGI", "setting": "[8]", "value": 13.1, "unit": "µM"}, {"measurement": "GI50", "setting": "[9]", "value": 33.3, "unit": "µM"}, {"measurement": "TGI", "setting": "[9]", "value": "> 100", "unit": "µM"}, {"measurement": "GI50", "setting": "[10]", "value": 15, "unit": "µM"}, {"measurement": "TGI", "setting": "[10]", "value": "> 100", "unit": "µM"}]}
{"smiles": "C[C@@]12CCC[C@@](C)(C(=O)O)C1CC[C@]13C[C@@](O)(CO)[C@](O)(CCC12)C3", "note": "(stereo not given in full)", "values": [{"measurement": "GI50", "setting": "[1]", "value": "> 100", "unit": "µM"}, {"measurement": "TGI", "setting": "[1]", "value": "> 100", "unit": "µM"}, {"measurement": "GI50", "setting": "[2]", "value": "> 100", "unit": "µM"}, {"measurement": "TGI", "setting": "[2]", "value": "> 100", "unit": "µM"}, {"measurement": "GI50", "setting": "[3]", "value": "> 100", "unit": "µM"}, {"measurement": "TGI", "setting": "[3]", "value": "> 100", "unit": "µM"}, {"measurement": "GI50", "setting": "[4]", "value": "> 100", "unit": "µM"}, {"measurement": "TGI", "setting": "[4]", "value": "> 100", "unit": "µM"}, {"measurement": "GI50", "setting": "[5]", "value": "> 100", "unit": "µM"}, {"measurement": "TGI", "setting": "[5]", "value": "> 100", "unit": "µM"}, {"measurement": "GI50", "setting": "[6]", "value": "> 100", "unit": "µM"}, {"measurement": "TGI", "setting": "[6]", "value": "> 100", "unit": "µM"}, {"measurement": "GI50", "setting": "[7]", "value": "> 100", "unit": "µM"}, {"measurement": "TGI", "setting": "[7]", "value": "> 100", "unit": "µM"}, {"measurement": "GI50", "setting": "[8]", "value": 55.3, "unit": "µM"}, {"measurement": "TGI", "setting": "[8]", "value": "> 100", "unit": "µM"}, {"measurement": "GI50", "setting": "[9]", "value": "> 100", "unit": "µM"}, {"measurement": "TGI", "setting": "[9]", "value": "> 100", "unit": "µM"}, {"measurement": "GI50", "setting": "[10]", "value": "> 100", "unit": "µM"}, {"measurement": "TGI", "setting": "[10]", "value": "> 100", "unit": "µM"}]}
{"smiles": "CCN(CC)CC(O)CNc1c2ccc([N+](=O)[O-])cc2nc2cc(OC)c(OC)cc12", "note": "(stereo not given)", "values": [{"measurement": "GI50", "setting": "[1]", "value": 0.304, "unit": "µM"}, {"measurement": "TGI", "setting": "[1]", "value": 1.3, "unit": "µM"}, {"measurement": "GI50", "setting": "[2]", "value": 0.207, "unit": "µM"}, {"measurement": "TGI", "setting": "[2]", "value": 0.543, "unit": "µM"}, {"measurement": "GI50", "setting": "[3]", "value": 0.22, "unit": "µM"}, {"measurement": "TGI", "setting": "[3]", "value": 0.705, "unit": "µM"}, {"measurement": "GI50", "setting": "[4]", "value": 1.81, "unit": "µM"}, {"measurement": "TGI", "setting": "[4]", "value": 3.85, "unit": "µM"}, {"measurement": "GI50", "setting": "[5]", "value": 0.376, "unit": "µM"}, {"measurement": "TGI", "setting": "[5]", "value": 12.4, "unit": "µM"}, {"measurement": "GI50", "setting": "[6]", "value": 0.2, "unit": "µM"}, {"measurement": "TGI", "setting": "[6]", "value": 0.636, "unit": "µM"}, {"measurement": "GI50", "setting": "[7]", "value": 4.63, "unit": "µM"}, {"measurement": "TGI", "setting": "[7]", "value": 18.7, "unit": "µM"}, {"measurement": "GI50", "setting": "[8]", "value": 0.303, "unit": "µM"}, {"measurement": "TGI", "setting": "[8]", "value": 11.1, "unit": "µM"}, {"measurement": "GI50", "setting": "[9]", "value": 0.396, "unit": "µM"}, {"measurement": "TGI", "setting": "[9]", "value": 2.36, "unit": "µM"}, {"measurement": "GI50", "setting": "[10]", "value": 0.343, "unit": "µM"}, {"measurement": "TGI", "setting": "[10]", "value": 1.37, "unit": "µM"}]}
{"smiles": "S=C(Nc1ccc(-c2nc3ccccc3[nH]2)cc1)Nc1ccc(-c2nc3ccccc3[nH]2)cc1", "values": [{"measurement": "GI50", "setting": "[1]", "value": "> 100", "unit": "µM"}, {"measurement": "TGI", "setting": "[1]", "value": "> 100", "unit": "µM"}, {"measurement": "GI50", "setting": "[2]", "value": 48.9, "unit": "µM"}, {"measurement": "TGI", "setting": "[2]", "value": "> 100", "unit": "µM"}, {"measurement": "GI50", "setting": "[3]", "value": 70.3, "unit": "µM"}, {"measurement": "TGI", "setting": "[3]", "value": "> 100", "unit": "µM"}, {"measurement": "GI50", "setting": "[4]", "value": "> 100", "unit": "µM"}, {"measurement": "TGI", "setting": "[4]", "value": "> 100", "unit": "µM"}, {"measurement": "GI50", "setting": "[5]", "value": 43.8, "unit": "µM"}, {"measurement": "TGI", "setting": "[5]", "value": "> 100", "unit": "µM"}, {"measurement": "GI50", "setting": "[6]", "value": 55.4, "unit": "µM"}, {"measurement": "TGI", "setting": "[6]", "value": "> 100", "unit": "µM"}, {"measurement": "GI50", "setting": "[7]", "value": 66.9, "unit": "µM"}, {"measurement": "TGI", "setting": "[7]", "value": "> 100", "unit": "µM"}, {"measurement": "GI50", "setting": "[8]", "value": 63.4, "unit": "µM"}, {"measurement": "TGI", "setting": "[8]", "value": "> 100", "unit": "µM"}, {"measurement": "GI50", "setting": "[9]", "value": "> 100", "unit": "µM"}, {"measurement": "TGI", "setting": "[9]", "value": "> 100", "unit": "µM"}, {"measurement": "GI50", "setting": "[10]", "value": 43.5, "unit": "µM"}, {"measurement": "TGI", "setting": "[10]", "value": "> 100", "unit": "µM"}]}
